Measured values published in ChEMBL document CHEMBL1201862, “PubChem BioAssay data set” (2004).
The source made the active and inactive calls.

Key:
[1] = target: Protein-tyrosine kinase 2-beta (Homo sapiens, UniProt Q14289);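 also: potency of inhibitors of PYK2 kinase phosphorylation of poly-GT substrate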
[2] = target: T1, Replicative DNA helicase DnaB (Mycobacterium tuberculosis, UniProt P9WMR3); experiment: DnaB intein splicing inhibitors, dose response, biochemical, cell-free fluorescence (AID 449749); type: functional
T1 sequence (P9WMR3 whole entry): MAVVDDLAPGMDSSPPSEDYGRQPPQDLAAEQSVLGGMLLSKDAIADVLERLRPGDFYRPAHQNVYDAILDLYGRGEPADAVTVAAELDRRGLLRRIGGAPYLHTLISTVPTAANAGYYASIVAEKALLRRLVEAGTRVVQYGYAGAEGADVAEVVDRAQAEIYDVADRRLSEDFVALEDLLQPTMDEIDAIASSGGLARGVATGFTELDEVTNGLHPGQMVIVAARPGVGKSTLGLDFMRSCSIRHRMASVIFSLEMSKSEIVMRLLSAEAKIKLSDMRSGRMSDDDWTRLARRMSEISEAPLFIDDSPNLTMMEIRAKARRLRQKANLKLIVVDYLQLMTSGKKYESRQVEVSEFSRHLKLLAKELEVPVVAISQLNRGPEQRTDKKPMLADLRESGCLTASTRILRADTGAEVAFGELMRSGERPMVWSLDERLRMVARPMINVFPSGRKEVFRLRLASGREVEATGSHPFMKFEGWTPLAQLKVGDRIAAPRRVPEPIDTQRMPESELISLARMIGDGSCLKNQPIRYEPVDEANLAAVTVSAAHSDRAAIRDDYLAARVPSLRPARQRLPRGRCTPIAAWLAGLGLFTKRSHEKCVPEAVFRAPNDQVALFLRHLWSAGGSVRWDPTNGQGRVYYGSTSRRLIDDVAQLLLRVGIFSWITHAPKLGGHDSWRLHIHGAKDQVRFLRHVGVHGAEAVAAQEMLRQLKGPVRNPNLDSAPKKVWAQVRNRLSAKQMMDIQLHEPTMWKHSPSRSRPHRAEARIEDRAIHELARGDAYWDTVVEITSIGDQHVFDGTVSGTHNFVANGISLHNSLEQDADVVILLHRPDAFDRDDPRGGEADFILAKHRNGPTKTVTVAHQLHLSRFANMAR

[3] = target: T2, Apoptotic protease-activating factor 1 (Homo sapiens, UniProt O14727); type: functional
T2 sequence (O14727 whole entry): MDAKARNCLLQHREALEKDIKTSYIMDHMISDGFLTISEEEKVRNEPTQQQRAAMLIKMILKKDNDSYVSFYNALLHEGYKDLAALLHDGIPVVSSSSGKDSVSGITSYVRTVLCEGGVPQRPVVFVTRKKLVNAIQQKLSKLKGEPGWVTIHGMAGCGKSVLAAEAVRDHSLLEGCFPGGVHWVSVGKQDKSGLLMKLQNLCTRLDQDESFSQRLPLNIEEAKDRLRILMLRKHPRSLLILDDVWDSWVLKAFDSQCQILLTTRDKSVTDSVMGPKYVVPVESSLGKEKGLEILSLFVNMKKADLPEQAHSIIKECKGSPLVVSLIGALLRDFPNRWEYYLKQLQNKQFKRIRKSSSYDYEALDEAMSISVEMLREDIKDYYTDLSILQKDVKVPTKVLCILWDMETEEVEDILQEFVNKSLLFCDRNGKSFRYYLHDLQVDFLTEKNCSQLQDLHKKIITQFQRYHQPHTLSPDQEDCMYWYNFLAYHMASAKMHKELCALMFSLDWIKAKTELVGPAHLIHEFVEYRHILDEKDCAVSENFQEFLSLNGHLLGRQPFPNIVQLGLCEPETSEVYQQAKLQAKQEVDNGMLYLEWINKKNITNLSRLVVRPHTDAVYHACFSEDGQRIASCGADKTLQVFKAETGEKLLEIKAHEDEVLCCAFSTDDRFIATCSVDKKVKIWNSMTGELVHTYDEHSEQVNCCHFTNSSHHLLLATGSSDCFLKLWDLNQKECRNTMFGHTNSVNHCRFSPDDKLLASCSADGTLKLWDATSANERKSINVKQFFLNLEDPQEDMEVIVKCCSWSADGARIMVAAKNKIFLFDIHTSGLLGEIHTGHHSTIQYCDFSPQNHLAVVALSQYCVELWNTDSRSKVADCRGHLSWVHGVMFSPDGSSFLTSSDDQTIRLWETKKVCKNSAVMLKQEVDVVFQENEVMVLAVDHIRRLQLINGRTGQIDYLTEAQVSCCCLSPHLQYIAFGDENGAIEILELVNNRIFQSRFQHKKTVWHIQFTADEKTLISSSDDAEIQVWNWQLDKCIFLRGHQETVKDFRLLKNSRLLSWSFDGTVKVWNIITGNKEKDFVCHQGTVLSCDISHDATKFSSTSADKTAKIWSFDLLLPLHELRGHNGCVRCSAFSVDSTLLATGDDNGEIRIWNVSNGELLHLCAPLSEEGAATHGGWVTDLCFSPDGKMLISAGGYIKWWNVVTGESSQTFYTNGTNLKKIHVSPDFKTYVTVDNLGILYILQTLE

Protein RecA = target: T3, Protein RecA (Mycobacterium tuberculosis, UniProt P9WHJ3); experiment: Fluorescence Cell-Free Homogeneous Dose Retest to Identify Inhibitors of RecA-Intein Splicing Activity. [Related pubchem assays (depositor defined):AID2097, AID2223, AID489010, AID492950]; type: functional
T3 sequence (P9WHJ3 whole entry): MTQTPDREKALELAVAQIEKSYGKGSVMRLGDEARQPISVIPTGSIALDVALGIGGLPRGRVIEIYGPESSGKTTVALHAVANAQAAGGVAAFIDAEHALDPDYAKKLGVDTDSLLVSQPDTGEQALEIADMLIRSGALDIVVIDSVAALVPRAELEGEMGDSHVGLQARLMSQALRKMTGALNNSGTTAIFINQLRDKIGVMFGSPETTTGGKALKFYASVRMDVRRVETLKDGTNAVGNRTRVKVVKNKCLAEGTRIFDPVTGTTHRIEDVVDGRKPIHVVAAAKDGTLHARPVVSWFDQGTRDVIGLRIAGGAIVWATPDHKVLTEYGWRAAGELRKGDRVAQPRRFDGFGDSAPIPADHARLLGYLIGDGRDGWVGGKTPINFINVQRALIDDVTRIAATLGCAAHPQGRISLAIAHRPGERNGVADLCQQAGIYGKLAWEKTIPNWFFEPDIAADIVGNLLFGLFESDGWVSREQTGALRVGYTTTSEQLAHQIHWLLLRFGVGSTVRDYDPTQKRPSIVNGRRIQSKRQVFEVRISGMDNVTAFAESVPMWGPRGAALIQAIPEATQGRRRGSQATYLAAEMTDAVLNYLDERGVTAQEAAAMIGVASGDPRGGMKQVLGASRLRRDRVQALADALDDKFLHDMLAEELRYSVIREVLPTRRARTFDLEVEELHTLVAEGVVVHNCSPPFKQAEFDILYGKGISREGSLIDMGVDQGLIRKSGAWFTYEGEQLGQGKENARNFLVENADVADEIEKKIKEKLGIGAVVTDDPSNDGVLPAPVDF

[4] = target: T4, Sentrin-specific protease 8 (Homo sapiens, UniProt Q96LD8); type: functional
T4 sequence (Q96LD8 whole entry): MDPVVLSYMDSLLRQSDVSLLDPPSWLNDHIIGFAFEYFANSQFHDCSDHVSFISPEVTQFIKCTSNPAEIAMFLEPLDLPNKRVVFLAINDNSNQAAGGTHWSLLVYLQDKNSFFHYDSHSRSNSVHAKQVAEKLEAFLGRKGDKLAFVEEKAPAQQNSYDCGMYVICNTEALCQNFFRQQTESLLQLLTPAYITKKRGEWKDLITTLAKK

[5] = target: T4, Sentrin-specific protease 8; type: functional; remark: listed apart in the source
[6] = HPDE-C7 pancreatic duct cell viability loss – fluorescence, HTS (AID 430); type: functional, cell-based; conditions: Homo sapiens
[7] = viability loss of HPDE-C7K cells – cell-based, fluorescence, HTS, primary screen (AID 431); type: functional; conditions: Homo sapiens

Sequence of Protein-tyrosine kinase 2-beta (Q14289 whole entry): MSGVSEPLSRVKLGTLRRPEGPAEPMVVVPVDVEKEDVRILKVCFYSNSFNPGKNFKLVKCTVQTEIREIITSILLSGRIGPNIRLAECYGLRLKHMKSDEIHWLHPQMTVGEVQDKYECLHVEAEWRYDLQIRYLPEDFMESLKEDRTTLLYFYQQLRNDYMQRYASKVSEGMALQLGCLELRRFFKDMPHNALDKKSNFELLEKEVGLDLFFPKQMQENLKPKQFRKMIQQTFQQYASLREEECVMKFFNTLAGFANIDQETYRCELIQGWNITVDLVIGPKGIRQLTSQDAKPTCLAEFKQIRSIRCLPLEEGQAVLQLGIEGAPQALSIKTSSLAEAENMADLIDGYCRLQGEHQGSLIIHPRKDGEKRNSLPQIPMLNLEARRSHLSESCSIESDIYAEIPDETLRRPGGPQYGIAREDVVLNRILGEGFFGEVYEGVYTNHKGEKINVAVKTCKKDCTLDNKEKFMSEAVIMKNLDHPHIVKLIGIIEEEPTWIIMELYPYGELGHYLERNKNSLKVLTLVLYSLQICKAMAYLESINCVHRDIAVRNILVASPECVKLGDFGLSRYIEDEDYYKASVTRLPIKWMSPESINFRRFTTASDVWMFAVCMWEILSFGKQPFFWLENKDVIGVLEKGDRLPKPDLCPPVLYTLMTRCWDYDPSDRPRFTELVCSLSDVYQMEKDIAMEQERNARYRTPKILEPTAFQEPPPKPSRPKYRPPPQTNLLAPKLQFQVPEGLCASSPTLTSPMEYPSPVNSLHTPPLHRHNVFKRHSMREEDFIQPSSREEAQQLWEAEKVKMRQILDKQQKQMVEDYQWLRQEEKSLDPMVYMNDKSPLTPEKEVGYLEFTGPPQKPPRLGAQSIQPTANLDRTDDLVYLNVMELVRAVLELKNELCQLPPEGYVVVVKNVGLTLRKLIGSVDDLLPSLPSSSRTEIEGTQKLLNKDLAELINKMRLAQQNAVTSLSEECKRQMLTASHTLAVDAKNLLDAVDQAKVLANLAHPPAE

SMILES	IC50 [1]	AC50 [2]	IC50 [3]	EC50 (Protein RecA)	IC50 [4]	IC50 [5]	EC50 [6]	EC50 [7]
O=C1Cc2ccccc2C(=O)N1CCc1ccccc1	> 69.5 µM (not active)	2.17 µM (active)	4.03 µM (active)	2.99 µM (active)	2.89 µM (active)	0.148 µM (active)		
COCCNC(=O)c1c(N)n(CCC2=CCCCC2)c2nc3ccccc3nc12							> 20 µM (not active)	> 20 µM (not active)
